What was measured:
Sigma2 = Sigma2 (Homo sapiens, UniProt Q5BJF2); assay: PDSP radioligand binding, Sigma2; settings: for Ki: Table 2
Excerpt: (§1) [17] and http://pdsp.med.unc.edu/UNC-CH%20Protocol%20Book.pdf.

Sigma1 = Sigma1 (Homo sapiens, UniProt Q99720); assay: PDSP radioligand binding, Sigma1; settings: for inhibition at 10 µM: quadruplicate, read-out: Sigma1 Primary Screen inhibition of binding
Excerpt: as §1

[1] = molecular target: NET (norepinephrine transporter) (Homo sapiens, UniProt P23975); assay: PDSP radioligand binding, norepinephrine transporter; settings: 10 µM, quadruplicate; read-out: NET Primary Screen inhibition of binding
Sequence of NET (norepinephrine transporter) (P23975 whole entry, species assumed): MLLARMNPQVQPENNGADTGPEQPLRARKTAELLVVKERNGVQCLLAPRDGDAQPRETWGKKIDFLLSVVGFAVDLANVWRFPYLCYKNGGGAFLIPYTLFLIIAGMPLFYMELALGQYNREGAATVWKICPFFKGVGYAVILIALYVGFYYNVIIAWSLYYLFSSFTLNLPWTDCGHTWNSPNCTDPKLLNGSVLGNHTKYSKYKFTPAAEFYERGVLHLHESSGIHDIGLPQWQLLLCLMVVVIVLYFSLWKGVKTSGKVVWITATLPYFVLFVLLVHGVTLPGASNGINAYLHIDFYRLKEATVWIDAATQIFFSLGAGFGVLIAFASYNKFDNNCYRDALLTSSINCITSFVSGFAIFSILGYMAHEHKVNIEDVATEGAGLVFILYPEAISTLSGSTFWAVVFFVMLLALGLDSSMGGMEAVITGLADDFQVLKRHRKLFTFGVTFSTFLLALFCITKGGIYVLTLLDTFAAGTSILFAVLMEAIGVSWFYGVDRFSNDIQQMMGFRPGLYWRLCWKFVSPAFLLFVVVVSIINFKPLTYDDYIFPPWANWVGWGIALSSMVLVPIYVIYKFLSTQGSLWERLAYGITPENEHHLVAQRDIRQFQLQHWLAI
Excerpt: as §1

[2] = molecular target: SERT (serotonin transporter) (Homo sapiens, UniProt P31645); assay: biochemical; format: binding
Sequence of SERT (serotonin transporter) (P31645 whole entry, species assumed): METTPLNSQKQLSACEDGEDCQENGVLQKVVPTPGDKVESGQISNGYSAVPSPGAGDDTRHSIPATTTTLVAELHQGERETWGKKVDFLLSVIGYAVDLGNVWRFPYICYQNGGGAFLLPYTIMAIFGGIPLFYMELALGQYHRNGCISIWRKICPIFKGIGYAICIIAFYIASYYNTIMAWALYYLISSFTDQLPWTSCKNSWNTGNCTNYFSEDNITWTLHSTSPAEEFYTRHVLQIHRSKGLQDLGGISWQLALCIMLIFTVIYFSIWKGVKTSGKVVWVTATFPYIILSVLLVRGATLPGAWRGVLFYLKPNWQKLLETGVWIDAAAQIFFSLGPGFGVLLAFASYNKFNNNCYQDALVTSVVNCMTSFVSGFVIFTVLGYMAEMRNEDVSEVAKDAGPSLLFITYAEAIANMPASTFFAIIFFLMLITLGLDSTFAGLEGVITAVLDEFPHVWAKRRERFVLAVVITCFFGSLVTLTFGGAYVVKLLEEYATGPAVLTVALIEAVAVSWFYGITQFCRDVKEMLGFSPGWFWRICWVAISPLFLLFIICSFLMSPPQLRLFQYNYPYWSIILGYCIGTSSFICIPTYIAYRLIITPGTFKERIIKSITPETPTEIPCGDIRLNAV
Excerpt: as §1

[3] = molecular target: NMDA Receptor (MK-801 binding site); assay: PDSP radioligand binding, NMDA receptor; settings: Table 2; for Ki: read-out: NMDA (Ki) (converted)
Excerpt: as §1

[4] = tested on: dopamine transporter (DAT); settings: cited from earlier work

Sequence of Sigma2 (Q5BJF2 whole entry): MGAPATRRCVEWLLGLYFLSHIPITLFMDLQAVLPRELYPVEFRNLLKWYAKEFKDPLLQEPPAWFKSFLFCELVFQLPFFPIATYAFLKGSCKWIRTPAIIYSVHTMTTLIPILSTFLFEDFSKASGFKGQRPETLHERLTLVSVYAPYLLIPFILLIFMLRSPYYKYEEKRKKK
Sequence of Sigma1 (Q99720 whole entry): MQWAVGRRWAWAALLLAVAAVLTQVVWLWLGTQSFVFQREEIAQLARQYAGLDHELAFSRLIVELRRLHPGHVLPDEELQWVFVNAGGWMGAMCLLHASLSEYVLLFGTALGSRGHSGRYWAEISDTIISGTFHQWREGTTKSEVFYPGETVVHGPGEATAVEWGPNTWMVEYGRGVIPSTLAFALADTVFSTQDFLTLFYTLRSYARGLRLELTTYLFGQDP

SMILES	inhibition at 10 µM (Sigma2; 10 µM, quadruplicate, read-out: Sigma2 Primary Screen inhibition of binding) [%]	effect on sigma2 receptors (Sigma2; tested at 10 µM)	inhibition at 10 µM (Sigma1) [%]	effect on sigma1 receptors (Sigma1; tested at 10 µM)	inhibition at 10 µM [1] [%]	Ki (Sigma2; Sigma2 (Ki, nM)) [nM]	Ki (Sigma2; Sigma2 pKi +/− SD) [nM]	Ki (Sigma1) [nM]	affinity for the serotonin transporter (SERT), in words [2]	Ki ([2]; Table 2) [nM]	NMDA pKi +/− SD [3]	Ki [3] [nM]	potency at DAT, in words [4]
CNC1(c2ccccc2Cl)CCCCC1=O (racemic) [Ketamine, (RS)-2-(2-chlorophenyl)-2-(methylamino)cyclohexanone, reference compound]	< 50	no significant effect	< 50	no significant effect	< 50								
CCNC1(c2cccc(OC)c2)CCCCC1 [3-MeO-PCE, N-ethyl-1-(3-methoxyphenyl)cyclohexanamine]					< 50	525	490	4520	submicromolar affinities	115	7.22±0.08	61	
c1ccc(C2(N3CCCCC3)CCCCC2)cc1 [Phencyclidine, reference compound]			< 50		< 50	136	151					59	submicromolar potency

Source: paper PMC3602154 (PLoS ONE, 2013)
